≈ marks a conversion by molar mass, not a printed value.
Legend:
Format in all cases: functional
[1] = system: Escherichia coli; experiment: Antibacterial activity against clinical isolate Escherichia coli assessed as prevention of visible growth at 25 degC after 24 hrs by broth dilution assay
[2] = system: Pseudomonas aeruginosa; experiment: Antibacterial activity against clinical isolate Pseudomonas aeruginosa assessed as prevention of visible growth at 25 degC after 24 hrs by broth dilution assay
[3] = system: Staphylococcus aureus; experiment: Antibacterial activity against clinical isolate Staphylococcus aureus assessed as prevention of visible growth at 25 degC after 24 hrs by broth dilution assay
[4] = system: Candida albicans; experiment: Antifungal activity against clinical isolate Candida albicans assessed as prevention of visible growth at 25 degC after 24 hrs by broth dilution assay
[5] = system: Trichophyton mentagrophytes; experiment: Antifungal activity against clinical isolate Trichophyton mentagrophytes assessed as prevention of visible growth at 30 degC after 48 hrs by broth dilution assay

Row | SMILES | MIC [1] | MIC [2] | MIC [3] | MIC [4] | MIC [5]
1 | Cc1nnc2c(Br)cnn2c1C | > 400 µM | > 400 µM | > 400 µM | > 400 µM | > 400 µM
2 | CCCC(=O)c1nnc2nc(SCc3ccccc3)nn2c1CCC | > 400 µM | – | 400 µM (≈ 142 µg/mL) | – | –
3 | CCCC(=O)c1nnc2nc(S(=O)(=O)Cc3ccccc3)nn2c1CCC | > 400 µM | > 400 µM | > 400 µM | > 400 µM | > 400 µM
4 | CCCC(=O)c1nnc2ncnn2c1CCC | > 400 µM | > 400 µM | > 400 µM | > 400 µM | > 400 µM
5 | CCCC(=O)c1nnc2nc(NC)nn2c1CCC | > 400 µM | > 400 µM | > 400 µM | > 400 µM | > 400 µM
6 | CCOC(=O)c1nnc2nccn2c1N | > 400 µM | > 400 µM | > 400 µM | > 400 µM | > 400 µM
7 | CCCC(=O)c1nnc2nccn2c1CCC | > 400 µM | > 400 µM | > 400 µM | > 400 µM | > 400 µM
8 | CCC(=O)c1nnc2nccn2c1CC | > 400 µM | > 400 µM | > 400 µM | > 400 µM | > 400 µM
9 | Cc1nnc2nccn2c1C | > 400 µM | > 400 µM | > 400 µM | > 400 µM | > 400 µM
10 | CCCC(=O)c1nnc2c(C(N)=O)ncn2c1CCC | > 400 µM | > 400 µM | > 400 µM | > 400 µM | > 400 µM
11 | CCC(=O)c1nnc2c(C(N)=O)ncn2c1CC | > 400 µM | > 400 µM | > 400 µM | > 400 µM | > 400 µM
12 | CC(=O)c1nnc2c(C(N)=O)ncn2c1C | > 400 µM | > 400 µM | > 400 µM | > 400 µM | > 400 µM

Next, values leading:

Row | MIC [1] | MIC [2] | MIC [3] | MIC [4] | MIC [5] | SMILES
13 | > 400 µM | 160 µM (≈ 33.2 µg/mL) | – | – | – | CCOC(=O)c1nnc2ccnn2c1N
14 | > 400 µM | – | 400 µM (≈ 111 µg/mL) | – | – | CCCC(=O)c1nnc2c(C(N)=O)nnn2c1CCC
15 | > 400 µM | > 400 µM | > 400 µM | > 400 µM | > 400 µM | CC(=O)c1nnc2ccnn2c1C
16 | > 400 µM | 400 µM (≈ 137 µg/mL) | – | – | – | CCCC(=O)c1nnc2c(-c3ccc(Cl)cc3)cnn2c1CCC
17 | > 400 µM | – | – | 400 µM (≈ 122 µg/mL) | – | CCCC(=O)c1nnc2c(C(=O)OCC)cnn2c1CCC
18 | > 400 µM | > 400 µM | > 400 µM | > 400 µM | > 400 µM | CCCC(=O)c1nnc2c(C(N)=O)cnn2c1CCC
19 | > 400 µM | > 400 µM | > 400 µM | > 400 µM | > 400 µM | CCC(=O)c1nnc2c(C(N)=O)cnn2c1CC
20 | > 400 µM | > 400 µM | > 400 µM | > 400 µM | > 400 µM | CCC(=O)c1nnc2ccnn2c1CC
21 | > 400 µM | – | – | – | 160 µM (≈ 45.3 µg/mL) | CCC(=O)c1nnc2c(Br)cnn2c1CC
22 | > 400 µM | > 400 µM | > 400 µM | > 400 µM | > 400 µM | CCC(=O)c1nnc2cc(-c3ccc(OC)cc3)nn2c1CC
23 | > 400 µM | > 400 µM | > 400 µM | > 400 µM | > 400 µM | N#Cc1nnc2ccnn2c1N
24 | > 400 µM | > 400 µM | > 400 µM | > 400 µM | > 400 µM | CCCc1c(C(=O)OCC)nnc2ccnn12
25 | > 400 µM | > 400 µM | > 400 µM | > 400 µM | > 400 µM | CCCc1cnnc2ccnn12
26 | > 400 µM | > 400 µM | > 400 µM | > 400 µM | > 400 µM | Cc1nnc2ccnn2c1C
27 | > 400 µM | > 400 µM | > 400 µM | > 400 µM | > 400 µM | CCCc1cnnc2c(Br)cnn12
28 | > 400 µM | > 400 µM | > 400 µM | > 400 µM | > 400 µM | Cc1cnnc2ccnn12
29 | > 400 µM | > 400 µM | > 400 µM | > 400 µM | > 400 µM | Cc1cnnc2c(Br)cnn12
